Series [1] in a line: Systemic effect after local administration. It counts as in vivo. The settings on record: administered locally.
A short description of series [2]: Solubility study of the Steroid in water / aqueous cyclodextrin solutions (phase-solubility, UV/VIS). It counts as physicochemical. As to the method:
The solubility studies were performed according to the method described below which is well known in the litrature. Excess amounts of the Steroid were added to aqueous solutions of 2,6-dimethyl-β-cyclodextrin. These suspensions were shaken at room temperature during 5 days followed by an equilibration period of 3 days at room temperature. Then an aliquot was centrifuged and the supernatant was filtered through a 0,45 µm membrane filter (Millipore: HV4, Millex). The samples were analysed with the Perkin Elmer Lambda 5 UV/VIS spectrophotometer. The absorbance was read and compared with a blanc and standard calibration curve. […] After calculation of the amount of Steroid dissolved, a phase-solubility diagram was constructed by plotting the dissolved amounts of Steroid as a function of the concentration of 2,6-dimethyl-β-cyclodextrin (see Graph).
For comparative purposes the unexpected increase of solubility of the Steroid in water using 2,6-dimethyl-β-cyclodextrin, is compared with other more common cyclodextrins.

Series [3] can be described thus: Intra ocular pressure on application to the eyes. It counts as in vivo. To be noted: applied to the eyes; contrary to other corticosteroids.

≈ marks a conversion by molar mass, not a printed value. Where two headings read alike, the source gives them in different places.

For the molecule `CCC(=O)[C@@]1(C)[C@H](C)C[C@H]2[C@@H]3CCC4=CC(=O)C=C[C@]4(C)[C@H]3[C@@H](O)C[C@@]21C` [Org 6216, 11β-hydroxy-16α,17α,21-trimethyl-▲¹ʼ⁴-pregnadiene-3,20-dione], in series [1], the systemic effect result is on record as “did not expose any significant systemic effect”. In addition, in series [2], the “increase of the solubility (factor)” value amounted to 10.000. The solubility in series [2] (water with 2,6-dimethyl-β-cyclodextrin, in water with 2,6-dimethyl-β-cyclodextrin, room temperature, read-out: Solubility) was 9 mg/mL (≈ 24300 µM); in series [2] (water with α-cyclodextrin, in water with α-cyclodextrin, room temperature, read-out: Solubility) it was 0.04 mg/mL (≈ 108 µM); in series [2] (water with β-cyclodextrin, in water with β-cylodextrin, room temperature, read-out: Solubility), 0.05 mg/mL (≈ 135 µM); in series [2] (water with τ-cyclodextrin, in water with τ-cyclodextrin, room temperature, read-out: Solubility) it was 0.07 mg/mL (≈ 189 µM); in series [2] (water, 2,6-dimethyl-beta-cyclodextrin, 2,6-dimethyl-β-cyclodextrin as solubilizing agent, about 0,28 millimol per ml, read-out: maximal solubility of the Steroid in water), 9 to 10 mg/mL (≈ 24300 to 27000 µM); in series [2] (water, 2,6-dimethyl-beta-cyclodextrin, inclusion complex with 2,6-dimethyl-β-cyclodextrin, read-out: solubility of the Steroid in water), approximately 10 mg/mL (≈ 27000 µM). Also, the solubility in series [2] (water, no cyclodextrin, read-out: Solubility without cyclodextrin) is 0.0007 mg/mL (≈ 1.89 µM); in series [2] (water, no cyclodextrin, read-out: original solubility in water), 0.0005 mg/mL (≈ 1.35 µM). Besides, the “increase of the intra ocular pressure (I.O.P.)” value in series [3] is given as “did not increase I.O.P”.

Source of the values: patent EP0326196A2, “Aqueous pharmaceutical preparation” (AKZO N.V., priority 1988, dated 1989).
